Read-outs that look alike come from different tables or passages of the source.
Tests used:
all melanoma cells = experiment: Cell viability assay (PrestoBlue), summary over all melanoma cells; assay type: cell-based; conditions: Homo sapiens, read-out: IC50 values
melanoma cells = experiment: Cell proliferation by CellTrace Violet flow cytometry; assay type: cell-based, human; conditions: IC50 concentrations, compared to DMSO
Description: After 48h of incubation, cells were rinsed and incubated with AnnexinV-APC (BD Biosciences). Cell proliferation and apoptosis were detected on a BD LSRFortessaTM Flow Cytometer. Data were analyzed with FlowJo software. To define slow proliferating or apoptotic cells: it was considered that slow proliferating cells represented the 30% of cells with the highest concentration of CellTrace Violet signal in the DMSO control. […] For apoptotic cells, it was considered the 20% of cells with the highest signal of AnnexinV-APC in the DMSO control.

[1] = tested on: 501mel, 501mel^VemuR or SKMEL28 melanoma cells; conditions: weekly IV 1.2mg/kg
Description: To investigate the effects of the aforementioned tested drugs in living organisms, it was decided to examine the impact of PM14 and Compound IA on melanoma cell-derived xenograft (CDXs) mouse models. Human 501mel, 501mel^VemuR or SKMEL28 melanoma cells were subcutaneously implanted into the right flank of NSG mice.
Tumor volumes were monitored following weekly IV treatments of PM14 or Comp IA at a concentration of 1.2mg/kg. Treatments commenced (Day 0) when the tumors reached 150 mm^3 in female NSG mice aged 4 to 6 weeks (N=8/group).

501 mel^Vemur cell line = conditions: 1.2 mg/kg intravenous
Description: (§1) Female athymic nu/nu mice (Harlan Laboratories Models, S.L. Barcelona, Spain or Envigo, Spain) were utilized for all experiments. Animal were housed in individually ventilated cages Sealsafe® Plus, Techmplast S.P.A.), up to ten per cage on a 12-hour light-dark cycle at 21-23 °C and 40-60 % humidity. Mice were allowed free access to irradiated standard rodent diet (Tecklad 2914C) and sterilized water. Animals were acclimated for at least 5 days prior to tumor implantation with a tumor cell suspension.
(§2) The cell line used are: • 501mel • IGR-37 • SK-Mel-28 • WM-266-4 • LOX-IMVI • 501mel^Vemur
(§3) In xenograft studies with cell lines: • Tumour volume was calculated using the equation […], where a: length (longest diameter) and b: width (shortest diameter) were measured in mm by using digital caliper (Fowler Sylvac, S235PAT). Tumour dimensions and body weights were recorded 2-3 times per week starting from the first day of treatment. • When tumors reached ca. 150-250 mm^3, tumour bearing animals (N = 8-10/group) were randomly allocated into the treatment groups, based on body weight and tumour measurements by using NewLab Oncology Software (version 2.25.06.00). • Comparison between median tumour volume of treated and placebo groups was used for evaluation of the antitumoural efficacy. • Animals were euthanized when their tumours reached ca. 1,500 mm^3 and/or severe necrosis was seen.
(§4) Treatments producing >20 % lethality and/or 20% net body weight loss were considered toxic.
(§5) In these experiments, PM14 and Compound IA, as well as placebo, were intravenously administered once per week for 3 consecutive weeks, on days 0, 7 and 14, whenever it was possible.

[2] = tested on: Sk-mel-28 melanoma xenografts; conditions: 1.2 mg/kg intravenous
Description: as §1, §2, §3, §4, §5
Table 6. Tumour volume evaluation in Sk-mel-28 melanoma xenografts with PM14 and Compound IA and placebo.

[3] = tested on: WM-266-4 melanoma xenografts; conditions: 1.2 mg/kg intravenous
Description: as §1, §2, §3, §4, §5
Table 7. Tumour volume evaluation in WM-266-4 melanoma xenografts with PM14 and Compound IA and placebo.

[4] = tested on: xenografts with various melanoma cell lines; conditions: different xenografts, 1.2 mg/kg intravenous once per week for 3 weeks
Description: as §1, §2
as §3, with “seen. […]” for “seen.”

Hermes3A = experiment: Cell viability assay (PrestoBlue), 72h
Description: (§6) Cells were grown at 37°C in 5% CO2 (10% for Hermes 3A) and were regularly checked for mycoplasma contamination. […] Melanoma IGR cell lines (IGR37 and IGR39) were grown in RPMI w/o HEPES (Gibco, Invitrogen) supplemented with 15% FCS and gentamycin.
(§7) To determine the IC50 (half maximal inhibitory concentration) of these cells to various inhibitors, cell viability assays were performed.
(§8) After 72h of treatment with different concentrations of the compounds, cells were treated with PrestoBlue reagent according to the manufacturer's instructions. The absorbance per well was measured with a Cellinsight CX5 microplate reader. Data were analyzed using Prism9 statistical software.

501mel = experiment: Cell viability assay (PrestoBlue), 72h; conditions: Homo sapiens
Description: Cells were grown at 37°C in 5% CO2 (10% for Hermes 3A) and were regularly checked for mycoplasma contamination. […] Melanoma cell lines 501mel and SKmel28 were grown in RPMI w/o HEPES (Gibco, Invitrogen) supplemented with 10% FCS and gentamycin. Vemurafenib-resistant cells (501melVemuR and MM074VemuR) were additionally supplemented with 1.5 µM of vemurafenib. Melanoma IGR cell lines (IGR37 and IGR39) were grown in RPMI w/o HEPES (Gibco, Invitrogen) supplemented with 15% FCS and gentamycin.
as §7, §8

501mel^VemuR = experiment: Cell viability assay (PrestoBlue), 72h; conditions: Homo sapiens
Description: Cells were grown at 37°C in 5% CO2 (10% for Hermes 3A) and were regularly checked for mycoplasma contamination. MM patient-derived short-term melanoma cultures (MM011, MM074, MM117, MM029, MM047, MM099) were grown in HAM-F10 (Gibco, Invitrogen) supplemented with 10% Fetal Calf Serum (FCS), 25 mM HEPES, 5.2 mM GLUTAMAX and penicillin-streptomycin. Melanoma cell lines 501mel and SKmel28 were grown in RPMI w/o HEPES (Gibco, Invitrogen) supplemented with 10% FCS and gentamycin. Vemurafenib-resistant cells (501melVemuR and MM074VemuR) were additionally supplemented with 1.5 µM of vemurafenib. Melanoma IGR cell lines (IGR37 and IGR39) were grown in RPMI w/o HEPES (Gibco, Invitrogen) supplemented with 15% FCS and gentamycin.
as §7, §8

MM047 = experiment: Cell viability assay (PrestoBlue), 72h; conditions: Homo sapiens
Description: as §6, §7, §8

IGR37 = experiment: Cell viability assay (PrestoBlue), 72h, last line of Table 2; conditions: Homo sapiens, IGR-37, 72 h
Description: as §6, §7, §8

SMILES: COc1c(C)cc2c(c1O)[C@@H]1[C@@H]3[C@@H]4SC[C@]5(N[C@H](CO)Cc6c5[nH]c5ccccc65)C(=O)OC[C@@H](c5c6c(c(C)c(OC(C)=O)c54)OCO6)N3[C@@H](O)[C@H](C2)N1C [PM14, ecubectedin]
- IC50 (all melanoma cells): 0.3 to 4.73 nM
- melanoma cell proliferation (melanoma cells): significant inhibition
- antitumor activity (tumor volumes) versus placebo-treated group ([1]; N=8/group): statistically significant difference
- overall survival ([1]; three CDX models): significant increase
- Median Tumour Volume (501 mel^Vemur cell line; days 0, 7 and 14, day 0): 147.9 mm^3
- Median Tumour Volume (501 mel^Vemur cell line; days 0, 7 and 14, day 2): 225.2 mm^3
- Median Tumour Volume (501 mel^Vemur cell line; days 0, 7 and 14, day 4): 248.4 mm^3
- Median Tumour Volume (501 mel^Vemur cell line; days 0, 7 and 14, day 7): 330.4 mm^3
- Median Tumour Volume (501 mel^Vemur cell line; days 0, 7 and 14, day 9): 361 mm^3
- Median Tumour Volume (501 mel^Vemur cell line; days 0, 7 and 14, day 11): 389.7 mm^3
- Median Tumour Volume (501 mel^Vemur cell line; days 0, 7 and 14, day 14): 407.1 mm^3
- Median Tumour Volume (501 mel^Vemur cell line; days 0, 7 and 14, day 16): 436.4 mm^3
- Median Tumour Volume (501 mel^Vemur cell line; days 0, 7 and 14, day 18): 502 mm^3
- Median Tumour Volume (501 mel^Vemur cell line; days 0, 7 and 14, day 21): 555.5 mm^3
- Median Tumour Volume (501 mel^Vemur cell line; days 0, 7 and 14, day 23): 674.2 mm^3
- Median Tumour Volume (501 mel^Vemur cell line; days 0, 7 and 14, day 25): 757.7 mm^3
- Median Tumour Volume (501 mel^Vemur cell line; days 0, 7 and 14, day 28): 839.8 mm^3
- Median Tumour Volume (501 mel^Vemur cell line; days 0, 7 and 14, day 30): 882.9 mm^3
- Median Tumour Volume (501 mel^Vemur cell line; days 0, 7 and 14, day 35): 863.3 mm^3
- Median Tumour Volume (501 mel^Vemur cell line; days 0, 7 and 14, day 37): 871.8 mm^3
- Median Tumour Volume (501 mel^Vemur cell line; days 0, 7 and 14, day 39): 948.6 mm^3
- Median Tumour Volume (501 mel^Vemur cell line; days 0, 7 and 14, day 42): 1020 mm^3
- Median Tumour Volume (501 mel^Vemur cell line; days 0, 7 and 14, day 44): 1,295.1 mm^3
- Median Tumour Volume (501 mel^Vemur cell line; days 0, 7 and 14, day 46): 1,582.2 mm^3
- Median Tumour Volume ([2]; days 0, 7 and 14, day 0): 152.8 mm^3
- Median Tumour Volume ([2]; days 0, 7 and 14, day 2): 184.4 mm^3
- Median Tumour Volume ([2]; days 0, 7 and 14, day 4): 235.4 mm^3
- Median Tumour Volume ([2]; days 0, 7 and 14, day 7): 326.2 mm^3
- Median Tumour Volume ([2]; days 0, 7 and 14, day 9): 401.5 mm^3
- Median Tumour Volume ([2]; days 0, 7 and 14, day 11): 510.6 mm^3
- Median Tumour Volume ([2]; days 0, 7 and 14, day 14): 632.6 mm^3
- Median Tumour Volume ([2]; days 0, 7 and 14, day 16): 671.9 mm^3
- Median Tumour Volume ([2]; days 0, 7 and 14, day 18): 822.8 mm^3
- Median Tumour Volume ([2]; days 0, 7 and 14, day 21): 884.4 mm^3
- Median Tumour Volume ([2]; days 0, 7 and 14, day 23): 1,012.5 mm^3
- Median Tumour Volume ([2]; days 0, 7 and 14, day 25): 1,204.2 mm^3
- Median Tumour Volume ([2]; days 0, 7 and 14, day 28): 1,516.7 mm^3
- Median Tumour Volume ([3]; days 0, 7 and 14, day 0): 169.5 mm^3
- Median Tumour Volume ([3]; days 0, 7 and 14, day 3): 115.1 mm^3
- Median Tumour Volume ([3]; days 0, 7 and 14, day 5): 118.2 mm^3
- Median Tumour Volume ([3]; days 0, 7 and 14, day 7): 136.6 mm^3
- Median Tumour Volume ([3]; days 0, 7 and 14, day 10): 133.1 mm^3
- Median Tumour Volume ([3]; days 0, 7 and 14, day 12): 109.8 mm^3
- Median Tumour Volume ([3]; days 0, 7 and 14, day 14): 138.4 mm^3
- Median Tumour Volume ([3]; days 0, 7 and 14, day 17): 129.6 mm^3
- Median Tumour Volume ([3]; days 0, 7 and 14, day 19): 119.2 mm^3
- Median Tumour Volume ([3]; days 0, 7 and 14, day 21): 150.4 mm^3
- Median Tumour Volume ([3]; days 0, 7 and 14, day 24): 137.2 mm^3
- Median Tumour Volume ([3]; days 0, 7 and 14, day 26): 146.9 mm^3
- Median Tumour Volume ([3]; days 0, 7 and 14, day 28): 197.6 mm^3
- Median Tumour Volume ([3]; days 0, 7 and 14, day 34): 388.1 mm^3
- Median Tumour Volume ([3]; days 0, 7 and 14, day 41): 727.7 mm^3
- Median Tumour Volume ([3]; days 0, 7 and 14, day 45): 1,111.6 mm^3
- Median Tumour Volume ([3]; days 0, 7 and 14, day 48): 1,503.6 mm^3
- tumor volume compared to the placebo [4]: reduction of the volume tumor
- sensitivity of non-cancerous Hermes3A immortalized melanocytes compared with the melanoma cells (Hermes3A; Hermes3A versus melanoma cells): less sensitive
- IC50 (Hermes3A; Homo sapiens, Melanocyte, 72 h): 2.89 nM
- IC50 (501mel): 1.25 nM
- IC50 (501mel^VemuR): 1.04 nM
- IC50 (MM047): 0.96 nM
- IC50 (IGR37): 0.78 nM

Reference: patent EP4563149A1, “LURBINECTEDIN, ECUBECTEDIN AND A RELATED COMPOUND FOR USE IN THE TREATMENT OF SKIN CANCERS” (Pharma Mar, S.A., priority 2023, dated 2025)
